pIC50: −log10 of the molar value.
Assays:
[1] = target: T1, hFASN enzyme (full length) (Homo sapiens, UniProt P49327); assay: Fatty Acid Synthase (FASN) inhibition scintillation proximity assay; assay type: biochemical; details: for inhibition at 10 µM: read-out: Human FASN % inhibition @ 10 μM, 10 μM test compound; for IC50: read-out: Human FASN pIC50 (converted)
T1 construct: 10 μL hFASN enzyme (full length, 300 ng, purified in house); made in house
Summary of the method: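 Compounds at 0.01–30 μM were mixed with 300 ng purified full-length enzyme in 100 mM KH2PO4 pH 7.5, 1 mM DTT. Substrates ³H-acetyl-CoA and malonyl-CoA were then converted, and bead addition stopped the reaction. Signal was normalised to low and high plate controls and fitted by 4-parameter nonlinear regression.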

[2] = system: A2780 ovarian cells; assay: A2780 ovarian cell proliferation assay in lipid reduced medium, with palmitate (MTT); assay type: cell-based; details: Homo sapiens, A2780, 96 h; read-out: pIC50 A2780 Ovarian Cell, With Palmitate (converted)
Summary of the method: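 Seeded cells were switched next day to lipid-reduced serum, exposed to compound and 25 μM palmitate complexed with fatty-acid-free BSA, and incubated 96 h. Proliferation was then determined by MTT absorbance at 544 nm, with a best-fit curve of signal against concentration.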

[3] = system: A2780 ovarian cells; assay: A2780 ovarian cell proliferation assay in lipid reduced medium, without palmitate (MTT); assay type: cell-based; details: Homo sapiens, A2780, 96 h; read-out: pIC50 A2780 Ovarian Cell, Without Palmitate (converted)
[4] = system: LNCaP-Vancouver prostate cells; assay: In vitro LNCaP Vancouver prostate cell proliferation assay in lipid reduced medium; assay type: cell-based; details: read-out: pIC50 LNCaP_Vancouver prostate cell (converted)
[5] = system: PC-3M-Luc-C6 prostate cells; assay: In vitro PC-3M-Luc-C6 prostate cell proliferation assay in lipid reduced medium; assay type: cell-based; details: 96 h, read-out: pIC50 PC-3M-Luc-C6 prostate cell (converted)
[6] = target: Fatty Acid Synthase Keto-reductase Domain (FASN KR) (Homo sapiens, UniProt P49327); assay: Fatty Acid Synthase keto-reductase domain (FASN KR) inhibition, NADPH oxidation at 340 nm
Sequence of Fatty Acid Synthase Keto-reductase Domain (FASN KR) (P49327 whole entry, the tested form may be a part): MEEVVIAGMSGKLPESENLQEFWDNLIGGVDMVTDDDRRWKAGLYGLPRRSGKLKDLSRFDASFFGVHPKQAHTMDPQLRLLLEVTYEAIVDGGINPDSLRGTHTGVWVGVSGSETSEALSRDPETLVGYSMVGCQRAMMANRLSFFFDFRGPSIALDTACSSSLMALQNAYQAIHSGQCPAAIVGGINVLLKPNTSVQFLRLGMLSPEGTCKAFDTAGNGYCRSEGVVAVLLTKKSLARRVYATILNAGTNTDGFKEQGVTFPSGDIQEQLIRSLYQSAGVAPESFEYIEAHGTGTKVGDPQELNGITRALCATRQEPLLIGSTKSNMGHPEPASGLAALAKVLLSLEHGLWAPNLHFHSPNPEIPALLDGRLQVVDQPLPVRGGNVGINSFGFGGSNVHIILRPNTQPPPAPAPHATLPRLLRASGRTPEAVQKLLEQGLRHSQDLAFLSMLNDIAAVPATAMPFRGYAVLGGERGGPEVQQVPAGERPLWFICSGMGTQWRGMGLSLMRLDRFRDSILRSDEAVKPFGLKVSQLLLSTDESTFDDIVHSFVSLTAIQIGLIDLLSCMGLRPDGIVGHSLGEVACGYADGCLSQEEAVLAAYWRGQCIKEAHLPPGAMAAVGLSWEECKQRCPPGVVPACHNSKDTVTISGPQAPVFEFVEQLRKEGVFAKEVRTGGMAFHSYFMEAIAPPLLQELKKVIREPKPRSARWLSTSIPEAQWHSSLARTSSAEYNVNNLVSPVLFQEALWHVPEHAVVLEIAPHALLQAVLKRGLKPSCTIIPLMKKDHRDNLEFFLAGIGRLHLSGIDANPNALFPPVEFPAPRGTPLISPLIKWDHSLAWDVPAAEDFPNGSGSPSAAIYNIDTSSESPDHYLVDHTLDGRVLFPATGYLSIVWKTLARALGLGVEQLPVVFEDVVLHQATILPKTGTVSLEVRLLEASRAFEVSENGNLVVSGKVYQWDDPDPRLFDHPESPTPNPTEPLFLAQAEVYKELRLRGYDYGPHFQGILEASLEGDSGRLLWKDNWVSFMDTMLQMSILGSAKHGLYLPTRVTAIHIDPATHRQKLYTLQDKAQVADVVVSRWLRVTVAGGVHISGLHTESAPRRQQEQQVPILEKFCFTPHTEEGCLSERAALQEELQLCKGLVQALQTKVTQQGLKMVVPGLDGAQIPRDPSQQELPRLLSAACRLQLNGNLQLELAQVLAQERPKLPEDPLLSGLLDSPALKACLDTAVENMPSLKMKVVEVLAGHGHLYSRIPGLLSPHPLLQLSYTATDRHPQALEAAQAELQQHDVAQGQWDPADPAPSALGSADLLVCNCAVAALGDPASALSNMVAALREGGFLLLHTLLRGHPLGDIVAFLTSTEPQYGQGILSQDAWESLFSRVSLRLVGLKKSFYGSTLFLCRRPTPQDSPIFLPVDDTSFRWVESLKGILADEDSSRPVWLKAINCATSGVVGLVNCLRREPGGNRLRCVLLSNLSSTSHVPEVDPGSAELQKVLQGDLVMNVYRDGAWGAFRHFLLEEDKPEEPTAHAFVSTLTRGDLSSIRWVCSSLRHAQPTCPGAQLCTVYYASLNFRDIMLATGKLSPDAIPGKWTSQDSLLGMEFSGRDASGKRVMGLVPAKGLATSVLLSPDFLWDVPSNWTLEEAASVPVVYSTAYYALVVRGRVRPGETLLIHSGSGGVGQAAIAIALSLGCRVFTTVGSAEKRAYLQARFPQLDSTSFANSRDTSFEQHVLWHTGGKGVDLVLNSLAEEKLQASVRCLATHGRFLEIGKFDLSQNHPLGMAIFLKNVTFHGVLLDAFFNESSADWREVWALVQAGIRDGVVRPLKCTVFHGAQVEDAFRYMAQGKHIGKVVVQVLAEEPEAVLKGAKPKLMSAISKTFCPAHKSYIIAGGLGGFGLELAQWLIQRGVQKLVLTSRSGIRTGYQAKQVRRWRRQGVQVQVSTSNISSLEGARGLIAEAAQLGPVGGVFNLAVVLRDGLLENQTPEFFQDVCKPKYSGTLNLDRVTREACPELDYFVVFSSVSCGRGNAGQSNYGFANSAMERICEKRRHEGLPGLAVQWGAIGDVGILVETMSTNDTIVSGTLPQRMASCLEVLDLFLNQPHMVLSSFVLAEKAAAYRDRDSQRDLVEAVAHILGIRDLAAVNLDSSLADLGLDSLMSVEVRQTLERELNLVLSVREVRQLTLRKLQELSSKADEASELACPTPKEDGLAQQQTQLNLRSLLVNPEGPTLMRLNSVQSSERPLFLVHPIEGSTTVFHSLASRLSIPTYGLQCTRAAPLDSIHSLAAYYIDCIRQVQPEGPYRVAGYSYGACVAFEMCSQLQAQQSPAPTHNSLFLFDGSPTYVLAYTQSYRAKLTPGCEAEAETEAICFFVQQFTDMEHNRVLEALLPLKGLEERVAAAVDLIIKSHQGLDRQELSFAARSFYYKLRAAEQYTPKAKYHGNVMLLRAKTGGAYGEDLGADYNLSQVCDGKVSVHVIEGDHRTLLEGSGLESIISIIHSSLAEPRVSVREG
Experimental: After 20 minutes incubation at room temperature the plate was measured again (T2).
The decrease in absorbance was calculated as (Absorbance before incubation T1)−(Absorbance following incubation T2).
A plot of Controlmin versus test compound concentration was fitted to a 4-parameter logistic curve using a non-linear least squares regression method.

T1 sequence (P49327 whole entry): as the sequence (P49327 whole entry, the tested form may be a part) above

SMILES	inhibition at 10 µM [1] [%]	IC50 [1] [nM]	IC50 [2] [nM]	IC50 [3] [nM]	IC50 [4] [nM]	IC50 [5] [nM]	pIC50 [6]
Cc1cc(-c2cccc3[nH]ncc23)ccc1C1=NC2(CC2)C(=O)N1CC1CN(C(=O)C2CC2)C1 [compound 304, 5-(4-(1H-indazol-4-yl)-2-methylphenyl)-6-((1-(cyclopropanecarbonyl)azetidin-3-yl)methyl)-4,6-diazaspiro[2.4]hept-4-en-7-one]	99	97.7	> 10000	85.1	1260	72.4	6.65
Cc1cc(-c2ccc3cc[nH]c3c2)ccc1C1=NC2(CC2)C(=O)N1C[C@@H]1CCN(C(=O)C2CC2)C1 [compound 305, (R)-5-(4-(1H-indol-6-yl)-2-methylphenyl)-6-((1-(cyclopropanecarbonyl)pyrrolidin-3-yl)methyl)-4,6-diazaspiro[2.4]hept-4-en-7-one]	103	25.1	> 10000	40.7	263	28.8	7.51
Cc1cc(-c2cccc3[nH]ncc23)ccc1C1=NC2(CC2)C(=O)N1C[C@@H]1CCN(C(=O)C2CC2)C1 [compound 306, (R)-5-(4-(1H-indazol-4-yl)-2-methylphenyl)-6-((1-(cyclopropanecarbonyl)pyrrolidin-3-yl)methyl)-4,6-diazaspiro[2.4]hept-4-en-7-one]	98	50.1	> 10000	17.8	513	17	6.98
O=C(C1CC1)N1CC[C@@H](CN2C(=O)C3(CC3)N=C2c2ccc(-c3ccc4cccc(F)c4c3)cc2)C1 [compound 313, (R)-6-((1-(cyclopropanecarbonyl)pyrrolidin-3-yl)methyl)-5-(4-(8-fluoronaphthalen-2-yl)phenyl)-4,6-diazaspiro[2.4]hept-4-en-7-one]	99	38.9	8710	53.7	155	~52.5	7.28
Cc1cc(-c2ccc(-c3cnn(C)c3)cc2)ccc1C1=NC2(CC2)C(=O)N1C[C@@H]1CCN(C(=O)C2CC2)C1 [compound 316, (R)-6-((1-(cyclopropanecarbonyl)pyrrolidin-3-yl)methyl)-5-(3-methyl-4′-(1-methyl-1H-pyrazol-4-yl)-[1,1′-biphenyl]-4-yl)-4,6-diazaspiro[2.4]hept-4-en-7-one]	108	41.7	> 10000	~15.8	102	19.5	7.12

Next, values leading:

inhibition at 10 µM [1] [%]	IC50 [1] [nM]	IC50 [2] [nM]	IC50 [3] [nM]	IC50 [4] [nM]	IC50 [5] [nM]	pIC50 [6]	SMILES
100	67.6	> 10000	91.2	661	102	6.84	O=C(C1CC1)N1CC[C@@H](CN2C(=O)C3(CC3)N=C2c2ccc(-c3nc4ccccc4o3)cc2)C1 [compound 307, (R)-5-(4-(benzo[d]oxazol-2-yl)phenyl)-6-((1-(cyclopropanecarbonyl)pyrrolidin-3-yl)methyl)-4,6-diazaspiro[2.4]hept-4-en-7-one]
102	47.9	> 10000	145	479	100	6.89	O=C(C1CC1)N1CC[C@@H](CN2C(=O)C3(CC3)N=C2c2ccc(-c3nc4ccccc4s3)cc2)C1 [compound 308, (R)-5-(4-(benzo[d]thiazol-2-yl)phenyl)-6-((1-(cyclopropanecarbonyl)pyrrolidin-3-yl)methyl)-4,6-diazaspiro[2.4]hept-4-en-7-one]
102	39.8	> 6170	589	813	~324	7.22	O=C(C1CC1)N1CC[C@@H](CN2C(=O)C3(CC3)N=C2c2ccc(-c3cccc4ncccc34)cc2)C1 [compound 310, (R)-6-((1-(cyclopropanecarbonyl)pyrrolidin-3-yl)methyl)-5-(4-(quinolin-5-yl)phenyl)-4,6-diazaspiro[2.4]hept-4-en-7-one]
